Results on ten compounds are retold here after patent publication US20170088546A1 (priority 2014, published 2017).

The target in one assay is Smurf-2 (Homo sapiens, UniProt Q9HAU4). Kind of assay: HECT E3 ligase autoubiquitinylation TR-FRET assay, Smurf-2. Type of assay: biochemical. The text has this: (§1) To determine the HECT E3 ligase selectivity of the compounds, a panel of biochemical HECT E3 ligase autoubiquitinylation assays was employed (Smurf-1, Smurf-2, WWP1, WWP2, ITCH, Nedd4, Nedd4L and E6AP). The conjugation of ubiquitin to a protein substrate is a multistep process. In an initial ATP-requiring step, a thioester bond is formed between the carboxyl terminus of ubiquitin and an internal cystein residue of the ubiquitin-activating enzyme (E1). Activated ubiquitin is then transferred to a specific cystein residue of an ubiquitin-conjugating enzyme (E2). E2s donate ubiquitin to a HECT E3 ligase (E3) from which it is transferred to the substrate protein. HECT E3 ligases can auto-ubiquitinylate. This event is detected in the TR-FRET (Time-Resolved Fluorescence Resonance Energy Transfer) assay used in this panel. The reaction mix contains E1, E2, tagged-E3, biotin-conjugated ubiquitin, the compound and ATP in a suitable buffer and is incubated for 45 minutes to allow auto-ubiquitinylation of the E3 ligase. To measure the extent of ubiquitinylated E3 ligase by TR-FRET, the donor fluorophore Europium cryptate (Eu3+ cryptate), conjugated to streptavidin which subsequently binds to biotinylated ubiquitin, and the modified allophycocyanin XL665 (HTRF® primary acceptor fluorophore) coupled to a tag-specific antibody (HA, His or GST), which recognizes the respective E3 ligase fusion proteins, are added after the reaction is complete. When these two fluorophores are brought together by a biomolecular interaction (in this case ubiquitinylation of the E3 ligase), a portion of the energy captured by the Cryptate during excitation is released through fluorescence emission at 620 nm, while the remaining energy is transferred to XL665. This energy is then released by XL665 as specific fluorescence at 665 nm. Light at 665 nm is emitted only through FRET with Europium.
(§2) Test and reference compounds are prepared at 180×[final] in 90% DMSO, and diluted 1:3 in 90% DMSO.
(§3) For the biochemical assay panel, 50 nl of the test compounds, reference compounds and buffer/DMSO control are transferred to the respective wells of a 384-well white GREINER “SMALL VOLUME” PS plate. The assay panel is run at room temperature on a Biomek FX liquid handling workstation. To the assay plates containing 50 nl compound or control solutions in 90% DMSO, 4.5 ul of E3 ligase solution were added per well, followed by 4.5 ul of the pre-incubated E1/E2/Ub mix or the pre-diluted ubiquitin (LOW control). Plates are shaken vigorously after each addition. In this assay the compound concentrations range from 3 nM to 10 uM in an 8-point dose-response curve.
(§4) After an incubation time of 45 min in the dark, the plates are transferred into the Pherastar fluorescence reader to measure the TR-FRET signal.

Another assay has as its target Smurf-1 (Homo sapiens, UniProt Q9HCE7). Kind of assay: biochemical. The conditions noted are these: biochemical autoubiquitinylation TR-FRET, 45 min incubation, 8-point dose-response 3 nM to 10 uM. Type of assay: biochemical.
Source text: as §1, §2, §3, §4

The mark [1] stands for this setting: biochemical autoubiquitinylation TR-FRET, 45 min incubation, 8-point dose-response 3 nM to 10 uM, read-out: Smurf-2/IC50.

Like-named read-outs stand apart in the source and are kept apart here.

Sequence of Smurf-1 (Q9HCE7 whole entry): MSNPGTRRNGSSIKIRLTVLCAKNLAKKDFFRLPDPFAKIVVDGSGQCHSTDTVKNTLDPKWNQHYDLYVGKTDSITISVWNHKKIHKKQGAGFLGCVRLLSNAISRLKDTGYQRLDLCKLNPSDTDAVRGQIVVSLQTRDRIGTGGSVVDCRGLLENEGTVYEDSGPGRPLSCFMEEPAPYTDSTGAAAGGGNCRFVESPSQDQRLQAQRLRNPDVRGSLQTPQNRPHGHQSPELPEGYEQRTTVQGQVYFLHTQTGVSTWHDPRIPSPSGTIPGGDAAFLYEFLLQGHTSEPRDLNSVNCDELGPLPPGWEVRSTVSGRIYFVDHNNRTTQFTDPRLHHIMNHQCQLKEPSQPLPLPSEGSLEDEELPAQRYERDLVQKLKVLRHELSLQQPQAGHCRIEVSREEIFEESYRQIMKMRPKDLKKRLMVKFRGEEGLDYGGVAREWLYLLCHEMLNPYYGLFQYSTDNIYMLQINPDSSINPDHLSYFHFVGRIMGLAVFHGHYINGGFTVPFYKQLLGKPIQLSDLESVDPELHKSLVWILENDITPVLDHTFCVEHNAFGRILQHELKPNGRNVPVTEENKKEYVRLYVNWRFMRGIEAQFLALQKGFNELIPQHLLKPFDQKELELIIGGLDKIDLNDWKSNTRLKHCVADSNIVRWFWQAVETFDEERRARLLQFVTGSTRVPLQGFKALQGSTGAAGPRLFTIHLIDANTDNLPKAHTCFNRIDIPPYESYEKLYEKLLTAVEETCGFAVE
Sequence of Smurf-2 (Q9HAU4 whole entry, species assumed): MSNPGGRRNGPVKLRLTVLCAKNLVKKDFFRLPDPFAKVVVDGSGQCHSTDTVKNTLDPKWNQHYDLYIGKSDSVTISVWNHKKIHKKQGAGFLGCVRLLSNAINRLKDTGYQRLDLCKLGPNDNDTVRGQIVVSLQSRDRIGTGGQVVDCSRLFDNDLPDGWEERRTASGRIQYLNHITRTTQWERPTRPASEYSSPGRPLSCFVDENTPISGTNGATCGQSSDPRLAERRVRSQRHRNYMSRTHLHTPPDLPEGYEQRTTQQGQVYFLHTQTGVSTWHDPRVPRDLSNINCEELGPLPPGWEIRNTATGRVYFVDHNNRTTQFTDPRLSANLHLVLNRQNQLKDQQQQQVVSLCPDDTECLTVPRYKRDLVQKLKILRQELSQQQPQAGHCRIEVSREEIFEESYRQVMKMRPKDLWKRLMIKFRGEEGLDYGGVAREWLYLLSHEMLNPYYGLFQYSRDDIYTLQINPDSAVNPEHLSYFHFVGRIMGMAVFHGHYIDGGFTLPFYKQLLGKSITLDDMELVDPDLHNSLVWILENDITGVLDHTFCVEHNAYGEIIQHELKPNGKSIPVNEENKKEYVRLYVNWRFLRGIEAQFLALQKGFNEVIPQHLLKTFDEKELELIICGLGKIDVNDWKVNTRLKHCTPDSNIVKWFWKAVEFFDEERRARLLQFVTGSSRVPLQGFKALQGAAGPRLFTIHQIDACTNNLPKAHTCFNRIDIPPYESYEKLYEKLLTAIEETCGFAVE

Take `CCc1ccc2c(c1)CCc1c(C(=O)Nc3c(C)n(C)n(-c4ccccc4)c3=O)noc1-2` [Example 7, N-(1,5-dimethyl-3-oxo-2-phenyl-2,3-dihydro-1H-pyrazol-4-yl)-7-ethyl-4,5-dihydronaphtho[2,1-d]isoxazole-3-carboxamide]: the IC50 against Smurf-2 is > 10000 nM; against Smurf-1 it was 568 nM.
On to `Cc1c(NC(=O)c2noc3c2CCCc2cc(OC(F)(F)F)ccc2-3)c(=O)n(-c2c(Cl)cccc2Cl)n1C` [Example 41, N-(2-(2,6-dichlorophenyl)-1,5-dimethyl-3-oxo-2,3-dihydro-1H-pyrazol-4-yl)-8-(trifluoromethoxy)-5,6-dihydro-4H-benzo[3,4]cyclohepta[1,2-d]isoxazole-3-carboxamide], for which the IC50 was 390 nM on Smurf-2 (setting [1]) and 4.5 nM at Smurf-1.
As to `COc1ccc2c(c1)CCCCc1c(C(=O)Nc3c(C)n(C)n(-c4ccccc4F)c3=O)noc1-2` [Example 53, N-(2-(2-fluorophenyl)-1,5-dimethyl-3-oxo-2,3-dihydro-1H-pyrazol-4-yl)-9-methoxy-4,5,6,7-tetrahydrobenzo[3,4]cycloocta[1,2-d]isoxazole-3-carboxamide], the IC50 against Smurf-2 was > 10000 nM; against Smurf-1 it was 132 nM.
The corresponding values for `COc1ccc2c(c1)CCCc1c(C(=O)Nc3c(C)n(C)n(CC4CCCCC4)c3=O)noc1-2` [Example 37, N-(2-(cyclohexylmethyl)-1,5-dimethyl-3-oxo-2,3-dihydro-1H-pyrazol-4-yl)-8-methoxy-5,6-dihydro-4H-benzo[3,4]cyclohepta[1,2-d]isoxazole-3-carboxamide] are > 10000 nM and 1040 nM.
As for `CCn1c(C)c(NC(=O)c2noc3c2CCCc2cc(OC)ccc2-3)c(=O)n1-c1ccccc1Cl` [Example 30, N-(2-(2-chlorophenyl)-1-ethyl-5-methyl-3-oxo-2,3-dihydro-1H-pyrazol-4-yl)-8-methoxy-5,6-dihydro-4H-benzo[3,4]cyclohepta[1,2-d]isoxazole-3-carboxamide], the IC50 at Smurf-2 (setting [1]) was 6850 nM; against Smurf-1, 680 nM.
In the same order, the values of `COc1ccc2c(c1)CCCc1c(C(=O)Nc3c(C)n(C)n(-c4ccccc4Cl)c3=O)noc1-2` [Example 27, N-(2-(2-chlorophenyl)-1,5-dimethyl-3-oxo-2,3-dihydro-1H-pyrazol-4-yl)-8-methoxy-5,6-dihydro-4H-benzo[3,4]cyclohepta[1,2-d]isoxazole-3-carboxamide] are 5800 nM and 125 nM.
Regarding `COc1ccc2c(c1)CCCc1c(C(=O)Nc3c(C)n(C)n(-c4ccc(C)cc4C)c3=O)noc1-2` [Example 22, N-(2-(2,4-dimethylphenyl)-1,5-dimethyl-3-oxo-2,3-dihydro-1H-pyrazol-4-yl)-8-methoxy-5,6-dihydro-4H-benzo[3,4]cyclohepta[1,2-d]isoxazole-3-carboxamide], the IC50 was > 10000 nM on Smurf-2 and 495 nM at Smurf-1.
In the case of `COc1ccc2c(c1)CCCc1c(C(=O)Nc3c(C)n(C)n(-c4ccc(Cl)cc4)c3=O)noc1-2` [Example 29, N-(2-(4-chlorophenyl)-1,5-dimethyl-3-oxo-2,3-dihydro-1H-pyrazol-4-yl)-8-methoxy-5,6-dihydro-4H-benzo[3,4]cyclohepta[1,2-d]isoxazole-3-carboxamide], the IC50 against Smurf-2 was > 10000 nM; at Smurf-1, 1060 nM.
Take `COc1ccc2c(c1)CCCc1c(C(=O)Nc3c(C)n(C)n(C4CCCC4)c3=O)noc1-2` [Example 34, N-(2-cyclopentyl-1,5-dimethyl-3-oxo-2,3-dihydro-1H-pyrazol-4-yl)-8-methoxy-5,6-dihydro-4H-benzo[3,4]cyclohepta[1,2-d]isoxazole-3-carboxamide]: the figures for the IC50 at Smurf-2 (setting [1]) and against Smurf-1 were 9500 nM and 29.2 nM, respectively.
Turning to `COc1ccc2c(c1)CCCc1c(C(=O)Nc3c(C)n(C)n(Cc4ccccc4)c3=O)noc1-2` [Example 32, N-(2-benzyl-1,5-dimethyl-3-oxo-2,3-dihydro-1H-pyrazol-4-yl)-8-methoxy-5,6-dihydro-4H-benzo[3,4]cyclohepta[1,2-d]isoxazole-3-carboxamide], the IC50 against Smurf-2 was > 10000 nM; against Smurf-1 it was 695 nM.
